Reference: PubChem BioAssay (NCI)
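Growth conditions: 96-well plates. Treatment: test compound, 48 hours, 5 concentrations. Analysis: linear interpolation between bracketing concentrations; unreached endpoints set to highest concentration. At the GI50, growth is halved. TGI: concentration producing complete growth inhibition.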

What was measured:
Assay in all cases: DTP human tumour cell line panel, 48 h
SNB-75 CNS = tested on: SNB-75 CNS
A498 renal = tested on: A498 renal
SW-620 colon = tested on: SW-620 colon
NCI-H460 lung = tested on: NCI-H460 lung
HOP-62 NSCLC = tested on: HOP-62 NSCLC
UO-31 renal = tested on: UO-31 renal
ACHN renal = tested on: ACHN renal
SK-MEL-28 melanoma = tested on: SK-MEL-28 melanoma
EKVX NSCLC = tested on: EKVX NSCLC
COLO 205 colon = tested on: COLO 205 colon

| SMILES | TGI (SNB-75 CNS) | TGI (A498 renal) | TGI (SW-620 colon) | TGI (NCI-H460 lung) | TGI (HOP-62 NSCLC) | TGI (UO-31 renal) | TGI (ACHN renal) | TGI (SK-MEL-28 melanoma) | TGI (EKVX NSCLC) | GI50 (SNB-75 CNS) | GI50 (A498 renal) | GI50 (SW-620 colon) | GI50 (NCI-H460 lung) | GI50 (HOP-62 NSCLC) | GI50 (UO-31 renal) | GI50 (COLO 205 colon) | TGI (COLO 205 colon) | GI50 (ACHN renal) | GI50 (SK-MEL-28 melanoma) | GI50 (EKVX NSCLC) |
| --- | --- | --- | --- | --- | --- | --- | --- | --- | --- | --- | --- | --- | --- | --- | --- | --- | --- | --- | --- | --- |
| O=c1[nH]c(=O)n([C@@H]2C[C@H](CO)[C@H](O)C2)cc1/C=C/Br | > 100 µM | > 100 µM | > 100 µM | > 100 µM | > 100 µM | > 100 µM | > 100 µM | > 100 µM | > 100 µM |  |  |  |  |  |  |  |  |  |  |  |
| CCCc1c(CC)c(=N)c2ccccc2n1C | > 100 µM | > 100 µM | > 100 µM | > 100 µM | > 100 µM | > 100 µM | > 100 µM | > 100 µM |  | 74.1 µM | 22.8 µM | > 100 µM | > 100 µM | > 100 µM | > 100 µM | > 100 µM | > 100 µM | > 100 µM | 69.2 µM |  |
| C=CC1[C@H]2COC(C)(C)O[C@@H]2CC(=O)C1(C)C (stereo partly drawn) | > 100 µM |  | > 100 µM | > 100 µM | > 100 µM | > 100 µM | > 100 µM | > 100 µM | > 100 µM |  |  |  |  |  |  |  | > 100 µM |  |  |  |
| O=C(Nc1cccs1)c1c(O)[nH]c(=S)[nH]c1=O |  | > 100 µM | > 100 µM | > 100 µM | > 100 µM | > 100 µM | > 100 µM | > 100 µM |  |  |  |  |  |  |  |  | > 100 µM |  |  |  |
| C/C(=N\O)c1cccc(Nc2cc(-n3ccnn3)c3ccccc3n2)c1 |  | 38.3 µM | 50.6 µM | > 100 µM | 30.7 µM | 37.5 µM | 34 µM | 30.2 µM | 76.1 µM |  | 15.2 µM | 21.1 µM | 48.9 µM | 15.2 µM | 16.2 µM | 22.2 µM | 59 µM | 15 µM | 0.444 µM | 19 µM |
| COc1ccc(-c2cc(=O)c3c(C)cc(C)nc3[nH]2)cc1 |  | > 100 µM | > 100 µM | > 100 µM | > 100 µM | > 100 µM | > 100 µM | > 100 µM | > 100 µM |  |  |  | 40.9 µM |  |  |  | 42.6 µM |  |  |  |
| CC1CC#CCOC(=O)CCCC1=O (stereo not drawn) | > 100 µM |  | > 100 µM | > 100 µM | > 100 µM |  |  | > 100 µM |  |  |  |  |  |  |  |  | > 100 µM |  |  |  |
| CS(=O)(=O)OCCN1CCN(C(=O)c2cccc3c(Nc4ccc(S(=O)(=O)N=C(N)N)cc4)c4ccccc4nc23)CC1 | > 100 µM | > 100 µM |  | > 100 µM | > 100 µM | > 100 µM | > 100 µM | > 100 µM |  |  |  |  |  |  |  |  | > 100 µM |  |  |  |
| O=Nc1c(-c2c(O)[nH]c3ccc([N+](=O)[O-])cc23)[nH]c2ccc(O)cc12 | 3.64 µM | 1.24 µM | > 100 µM |  | > 33.6 µM |  | > 100 µM | > 100 µM |  | 0.0264 µM | 0.218 µM | 0.385 µM | 0.32 µM | 0.524 µM |  | 5.92 µM | 40.5 µM | 0.261 µM | 0.435 µM |  |
| COc1cc(/C=C\c2ccc(C)cc2)cc(OC)c1OC |  |  | > 100 µM | 0.232 µM | 34.1 µM |  | > 100 µM |  | > 100 µM | 0.0149 µM |  |  |  |  |  |  | 0.144 µM |  |  | < 0.022 µM |
| COc1ccc(-c2nc3sc(-c4ccc(Cl)cc4)cn3n2)cc1 | 6.85 µM |  | > 50 µM | 4 µM | > 50 µM | 4.51 µM | 2.02 µM | > 50 µM | > 50 µM | 1.61 µM |  | 5.51 µM | 1.33 µM | 2.36 µM | 1.19 µM | 2.65 µM | > 50 µM | 0.927 µM | > 50 µM | 4.82 µM |
| Nc1nc2c(c(=O)[nH]1)NC(CO)CN2 (stereo not drawn) | > 100 µM |  | > 100 µM | > 100 µM | > 100 µM | > 100 µM | > 100 µM | > 100 µM | > 100 µM |  |  |  |  |  |  |  | > 100 µM |  |  |  |
| O=C(Nc1ccc(F)cc1)c1ccc(NC2=C(Cl)C(=O)N(Cc3ccccc3)C2=O)cc1 | 37.4 µM | 31.9 µM | > 100 µM | > 100 µM |  | 23.4 µM | 27.8 µM | 39.5 µM | 87 µM | 15.9 µM | 13.6 µM | 4.54 µM | 7.32 µM |  | 10.5 µM | 22.1 µM | > 100 µM | 14.3 µM | 16.5 µM | 27 µM |
| O=C(O)COc1ccc(O)c2c1C(=O)CCCC2=O |  | > 100 µM | > 100 µM | > 100 µM | > 100 µM | > 100 µM | > 100 µM | > 100 µM | > 100 µM |  |  |  |  |  |  |  | > 100 µM |  |  |  |
